{"source": "patent US20090298889A1", "about": "“PHARMACEUTICAL COMPOSITIONS CONTAINING 2-PYRIDONE DERIVATIVES AS EFFECTIVE COMPONENTS” (SATO PHARMACEUTICAL CO., LTD., priority 2005, published 2009)", "key": {"neutrophils": {"system": "neutrophils", "test": "Test for examining cell adhesion-inhibitory effect (TNF-α-stimulated neutrophil adhesion to keyhole limpet hemocyanin-coated plate, Alamar blue fluorescence)", "format": "cell-based, human (healthy person)", "conditions": "0.5 h, human neutrophils stimulated with TNF-α 10 ng/mL, 37° C. 30 minutes, Probit technique, read-out: IC50 (50%-inhibitory concentration of cell adhesion)", "experimental": "To a 96-well culture plate coated, in advance, with keyhole limpet hemocyanin, there was added 0.05 mL each of a solution of a candidate test compound in dimethylsulfoxide diluted to a final dimethylsulfoxide concentration of 1% with DMEM. A blood sample was collected from a healthy person through the median vein of elbow and the neutrophils were fractionated or isolated through the use of Mono-Poly Separation Liquid and the centrifugation. The fractionated neutrophils were suspended in DMEM to a concentration of 1×10^6 cells/mL and 0.1 mL of the resulting neutrophil-containing suspension was added to each well of the culture plate. Moreover, 40 ng/mL of tumor-necrosis factor (TNF)-α was diluted with DMEM to a final concentration of 10 ng/mL and 0.05 mL of the resulting diluted solution was added to each well of the culture plate. After the culture plate was allowed to stand at 37° C. for 30 minutes in a CO2-incubator, the plate was washed three times (thrice) with 0.2 mL of phosphate-buffered physiological saline (PBS(−), available from GIBCO Corporation). In addition, to each well, there was added 0.1 mL of a 10% solution of Alamar blue in DMEM, the culture plate was allowed to stand at 37° C. for 3 hours in a CO2-incubator, and then the intensity of fluorescent rays emitted from the adhered neutrophil cells was determined (Ex: 544 nm; Em: 590 nm). In this respect, the sample group free of any stimulation was defined to be the non-adhesion control group and the sample group stimulated with TNF-α was referred to as the adhesion control group to thus determine or calculate the cell adhesion-inhibitory rate of the compound of the present invention at each concentration, and the 50%-inhibitory concentration (IC50) was calculated from the cell adhesion-inhibitory rates thus determined according to the Probit technique. The same test procedures used above were repeated except for using different kinds of candidate compounds."}, "[1]": {"system": "neutrophil infiltration (MPO activity)", "test": "Effect on zymosan-induced neutrophil infiltration (MPO activity of peritoneal fluid)", "format": "in vivo, ICR mice", "conditions": "30 mg/kg body weight orally, FIG. 1; for MPO activity with respect to the vehicle: 1 hour before intra-peritoneal zymosan, peritoneal fluid after 3 hours", "experimental": "Each candidate compound was administered to 6-week-old male ICR mice, which had been fasted from the day before the initiation of this test. Each candidate compound was suspended in a 3% dimethylsulfoxide/carboxymethyl cellulose sodium solution and the resulting suspension was administered to the mice at a dose of 30 mg/kg body weight/10 mL. After the elapse of one hour, 1 mL of a 0.01% solution of zymosan in physiological saline was intra-peritoneally administered. After 3 hours, 5 mL of physiological saline was intra-peritoneally administered and the test animals were lightly massaged for 30 seconds. The abdominal wall of the test animals were slightly incised to thus collect the peritoneal fluid using a Pasteur pipette. Thereafter, the fluid thus recovered was centrifuged (at 20,000 g, for 20 minutes, at 4° C.), the resulting pellets were washed with a 50 mM sodium phosphate buffer (pH 6.0) and then again centrifuged. To the pellets thus recovered, there was added 0.5% hexadecyl trimethyl ammonium bromide (HTAB) and then centrifuged to thus give a supernatant, which was subsequently used as an enzyme source. To 15 μL of the enzyme source, there were added 200 μL of a 1.154 mM o-di-anisidine and 50 μL of a 0.005% hydrogen peroxide solution and then the optical densities at 450 nm (OD450) were determined to thus calculate the difference: (OD450 observed after 90 seconds from the initiation of the reaction)−(OD450 observed after 30 seconds from the initiation of the reaction), which was herein defined to be MPO activity. In this connection, the MPO activity was calculated, while defining the activity required for increasing the OD450 value by 0.001 as one unit. The MPO activity is herein defined to be the activity of the enzyme present in the neutrophils and accordingly, the reduction in the MPO activity means the inhibition of the neutrophil-infiltration. The results thus obtained are plotted on FIG. 1. […]"}, "[2]": {"test": "Toxicity test by administration of one time (single dose)", "conditions": "mouse, in vivo", "from_the_text": "Test Animals Used: ICR Male Mice (5-Week-Old):\nThey were purchased and then preliminarily kept over one week, prior to the practical use thereof in this test.\nEach test group comprised 5 animals.\nInspected Items: Appearance (such as death, weakening); Physical Conditions (such as the presence of lateral turning); Consciousness (such as excitation, lethargy (coma)); Behaviors (such as convulsions); Properties of fecal matters; and Foreign matters present in the urine."}}}
{"compound": "CC(=O)c1cn(-c2ccccc2)c(=O)c(Sc2ncccn2)c1C", "note": "[Compound 74, 5-Acetyl-4-methyl-1-phenyl-3-(pyrimidin-2-yl-thio)-1H-pyridin-2-one]", "values": [{"measurement": "melting point", "value": "184.5 to 185.3", "unit": "°C"}]}
{"compound": "CC(=O)c1cn(-c2ccccc2)c(=O)c(C#N)c1C", "note": "[Compound 71, 5-acetyl-4-methyl-2-oxo-1-phenyl-1,2-di-hydro-pyridine-3-carbonitrile]", "values": [{"measurement": "melting point", "value": "215.4 to 216.8", "unit": "°C"}]}
{"compound": "CCc1cn(-c2ccccc2)c(=O)c(Sc2ccc(F)cc2)c1C", "note": "[Compound 80, 5-Ethyl-3-(4-fluoro-phenylthio)-4-methyl-1-phenyl-1H-pyridin-2-one]", "values": [{"measurement": "melting point", "value": "116.8 to 118.7", "unit": "°C"}]}
{"compound": "Cc1c(C(C)O)cn(-c2ccccc2)c(=O)c1Sc1ccc(F)cc1", "note": "(stereo not drawn) [Compound 77, 3-(4-Fluoro-phenylthio)-5-(1-hydroxyethyl)-4-methyl-1-phenyl-1H-pyridin-2-one]", "values": [{"measurement": "IC50", "setting": "neutrophils", "value": 980, "unit": "nM"}]}
{"compound": "CC(=O)c1cn(-c2ccccc2)c(=O)c(Br)c1C", "note": "[Compound 70, 5-acetyl-3-bromo-4-methyl-1-phenyl-1H-pyridin-2-one]", "values": [{"measurement": "melting point", "value": "166.5 to 167.4", "unit": "°C"}]}
{"compound": "CC(=O)c1c(C)c(Sc2ccc(F)cc2)c(=O)n(-c2ccccc2)c1C", "note": "[Compound 62, 5-acetyl-3-(4-fluoro-phenylthio)-4,6-dimethyl-1-phenyl-1H-pyridin-2-one]", "values": [{"measurement": "IC50", "setting": "neutrophils", "value": 569, "unit": "nM"}, {"measurement": "MPO activity with respect to the vehicle", "setting": "[1]", "value": "decreases in the MPO activity"}, {"measurement": "neutrophil infiltration-inhibitory effect", "setting": "[1]; zymosan-induced model", "value": "excellent neutrophil infiltration-inhibitory effects"}]}
{"compound": "CC(=O)c1cn(-c2ccccc2)c(=O)c(Sc2ccc(F)cc2)c1C", "note": "[Compound 1, 5-acetyl-3-(4-fluorophenylthio)-4-methyl-1-phenyl-1H-pyridin-2-one]", "values": [{"measurement": "IC50", "setting": "neutrophils", "value": 400, "unit": "nM"}, {"measurement": "MPO activity with respect to the vehicle", "setting": "[1]", "value": "decreases in the MPO activity"}, {"measurement": "Result of single dose toxicity test (death, severe side-effect)", "setting": "[2]", "value": "All of the test animals were not died"}]}
{"compound": "CC(=O)c1c[nH]c(=O)c(Sc2ccc(F)cc2)c1C", "note": "[Compound 42, 5-acetyl-3-(4-fluoro-phenylthio)-4-methyl-1H-pyridin-2-one]", "values": [{"measurement": "melting point", "value": "236 to 238", "unit": "°C"}]}
